One compound from patent US20240141294A1, “CGMP COMPLIANT PRODUCTION AND EXPANSION OF PLASMACYTOID DENDRITIC CELLS FROM HEMATOPOIETIC STEM AND PROGENITOR CELLS” (AARHUS UNIVERSITET, priority 2021, published 2024) can be followed below.

Assay [1] concerns Cord-blood derived CD34+HSPCs. Description: SR1/IL-3 deprivation during final 3 days of HSPC-pDC differentiation: cell growth and viability. In kind it is cell-based, human. As for the experimental part:
In addition, 1 μM of the small molecule inhibitor StemRegenin 1 (SR1, […] Technologies), 20 μg/mL streptomycin and 20 U/mL penicillin (Gibco, Life Technologies) and 50 μg/mL of ascorbic acid (Sigma Aldrich) was added. Cells were cultured at 37° C., 95% humidity, and 5% CO2 for 17 days, medium was replenished every 2-4 day. […] Viability and total cell numbers during expansion and differentiation of HSPCs was determined using a TC20 Automated Cell Counter (Bio-Rad).

The test system of a further assay is HSPC-pDCs. In words: SR1/IL-3 deprivation: flow cytometry of CD123 and CD303. In kind it is cell-based, human. As for the experimental part: Priming of HSPC-pDCs was performed as previously described [Laustsen, A., et al 2018]. […] HSPC-pDCs were primed with 250 U/mL IFN-β (PBL Assay Science) and 250 U/mL IFN-γ (Peprotech) or left unprimed. Cells were primed for 24 hours before being phenotypically and functionally characterized.
Flow cytometry was used to immunophenotype pDCs. Briefly, cells were spun down and resuspended in 25 μL TruStain FcBlock (Biolegend) diluted in cold FACS buffer (PBS with 2% FCS and 1 mM EDTA) and incubated cold for 15 minutes. Cells were subsequently stained 25 μL with the following antibodies: APC anti-human Lineage Cocktail (CD3 (UCHT1), CD14 (HCD14), CD16 (3G8), CD19 (HIB19), CD20 (2H7) and CD56 (HCD56), 348801, BioLegend), FITC anti-human CD11c (3.9, 301604, BioLegend), BV421 CD14 (HCD14, 325628, BioLegend), PE CD34 (581, 343506, BioLegend), APC-eFluor780 anti-human CD123 (6H6, 47-1239-42, eBioscience), PE-Cy7 anti-human CD303 (201a, 354214, BioLegend). Cells were stained for 30 min before being washed two times in FACS buffer and finally resuspended in 200 μL FACS Buffer. Fluorescence intensities were measured using the Attune NxT Flow Cytometer equipped with 4 lasers (405 nm, 488 nm, 561 nm, and 638 nm). Data analysis was done using FlowJo (Version 10.8.1, Tree Star, Ashland, OR, USA.
On the technique in general: A flow cytometer gives signals particle by particle.

With `CC(C)n1cnc2c(NCCc3ccc(O)cc3)nc(-c3csc4ccccc34)nc21` [SR1, StemRegenin 1], the “fold change in number of cells in culture after the 3 days” value in assay [1] (named supplement removed day 14-17, standard condition 2.31 (±0.49)) was 2.38 (±0.23). In addition, the “difference in the number of cells in culture between day 14 and 17” value in assay [1] (named supplement removed from media day 14-17, standard condition 22.5×10^6 (±2.15×10^6)) is 25.3×10^6 (±3.12×10^6) cells. Further, in the assay with HSPC-pDCs (SR1 removed from media vs standard condition), the CD303 surface expression entry is “no apparent difference”. Also, the CD123 surface expression in the assay on HSPC-pDCs (SR1 removed from media, standard culturing condition MEI 1938) is recorded as 988 (±391) MEI.
